These results are taken from article PMC7155171, “Probing the Open Global Health Chemical Diversity Library for Multistage-Active Starting Points for Next-Generation Antimalarials” (ACS Infectious Diseases, 2020).

Read-outs that look alike come from different tables or passages of the source.

Series [1] relates to P. berghei liver stage (PbLuc). Put plainly: P. berghei luciferase liver stage (PbLuc) assay in HepG2-A16-CD81 hepatocytes. The series is classed as cell-based, Plasmodium berghei. Conditions: Plasmodium berghei; for Emax: 12pt dose response, maximum inhibition.
In series [2] the target is recombinant firefly luciferase (Photinus pyralis, UniProt P08659). Put plainly: biochemical. Conditions: read-out: rLuc IC50.
In series [3] the test system is HepG2-A16-CD81 hepatocytes. Put plainly: HepG2 cytotoxicity screening (CellTiter-Glo). Conditions: for IC50: HepG2-A16-CD81, read-out: HepG2 tox IC50; for HepG2 cytotoxicity 12pt dose response: Maximum inhibition (%): 12pt dose response. For orientation: ATP-based viability assays read luminescence as a measure of living cells.
Series [4] can be described thus: HepG2 cytotoxicity screening (CellTiter-Glo). Conditions: human, uninfected HepG2-A16-CD81 (EGFP) hepatocytes.
Setting [5] is: HepG2-A16-CD81, 48 h, 48 h liver stage, HepG2-A16-CD81, read-out: Pbluc (EEF) IC50.
Setting [6] is: HepG2-A16-CD81, 12pt dose response, read-out: PbLuc 12pt dose response: IC50.

Sequence of recombinant firefly luciferase (P08659 whole entry): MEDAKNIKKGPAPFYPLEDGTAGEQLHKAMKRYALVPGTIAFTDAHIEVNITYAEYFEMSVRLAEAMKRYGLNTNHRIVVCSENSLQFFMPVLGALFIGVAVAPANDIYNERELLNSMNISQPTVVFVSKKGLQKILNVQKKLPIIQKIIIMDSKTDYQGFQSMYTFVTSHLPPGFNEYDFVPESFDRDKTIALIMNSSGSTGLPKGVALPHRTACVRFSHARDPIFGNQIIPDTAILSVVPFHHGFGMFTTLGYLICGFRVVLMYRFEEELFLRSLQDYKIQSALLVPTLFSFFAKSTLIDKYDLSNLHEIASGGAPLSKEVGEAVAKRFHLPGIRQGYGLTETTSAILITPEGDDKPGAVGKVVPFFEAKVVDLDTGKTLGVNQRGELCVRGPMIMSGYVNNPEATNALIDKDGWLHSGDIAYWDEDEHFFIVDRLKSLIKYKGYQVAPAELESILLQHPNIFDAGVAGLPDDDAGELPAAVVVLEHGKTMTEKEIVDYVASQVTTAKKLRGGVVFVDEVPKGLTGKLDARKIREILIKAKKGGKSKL

What is called IC50 is the point on the concentration scale where inhibition reaches its midpoint. As for `CCS(=O)(=O)N1CCc2ccc(NC(=O)Nc3cccc(C)c3)cc21` [DDD01025922], the half-inhibitory concentration (IC50) in series [1] (setting [5]) is 3.66 µM; in series [2], above 50 µM; in series [3], 16.6 µM.

Regarding `CCS(=O)(=O)N1CCc2ccc(NC(=O)Nc3cccc(F)c3)cc21` [DDD01025926], the IC50 in series [1] (setting [5]) was 9.31 µM; in series [2] it was above 25 µM; in series [3], 17.8 µM.

Regarding `Cc1cnc(NC(=O)c2csc(NC3CCCC3)n2)s1` [DDD01026924], the values for the IC50 in series [1] (setting [5]), in series [2] and in series [3] were 8.33 µM, 24.8 µM and above 25 µM, respectively.

On to `CCCc1cc(=O)[nH]c(-n2nc(C3CC3)cc2N)n1` [DDD01027468], for which the IC50 in series [1] (setting [5]) was 4.69 µM; in series [2], above 25 µM; in series [3], 20.5 µM.

With `CC(C)c1cc(=O)[nH]c(-n2nc(C3CC3)cc2N)n1` [DDD01027469], the IC50 in series [1] (setting [5]) was 1.61 µM; in series [2], above 25 µM; in series [3] it was 18.9 µM.

As for `Cc1cc(C(=O)N2CCN(c3nc4c(C(C)C)cccc4s3)CC2)no1` [DDD01027513], the IC50 in series [1] (setting [5]) was 0.822 µM; in series [2], above 50 µM; in series [3], above 25 µM.

Consider `Cc1cc(C(=O)N2CCN(c3nc4c(C(C)C)cccc4s3)CC2)on1` [DDD01027654], for which the IC50 is 4 µM in series [1] (setting [5]), above 50 µM in series [2] and above 25 µM in series [3].

Regarding `Cc1[nH]/c(=N\C(=O)c2csc(NC3CCCC3)n2)sc1C` [DDD01035522], the IC50 came to 0.832 µM in series [1] (setting [5]), 44.4 µM in series [2] and 11 µM in series [3].

As to `CCS(=O)(=O)N1CCc2ccc(NC(=O)Nc3cccc(SC)c3)cc21` [DDD01035781], the figures for the IC50 in series [1] (setting [5]), in series [2] and in series [3] were 1.38 µM, above 25 µM and 3.39 µM, respectively.

As to `Fc1ccc(CN2CCCC(c3cc4ncccc4[nH]3)C2)cc1` (stereo not shown) [DDD01057419], the values for the IC50 in series [1] (setting [5]), in series [2] and in series [3] were 8.45 µM, above 25 µM and above 25 µM, respectively.

`COc1cc(C)c(CN2CCc3nc4ccsc4c(=O)n3CC2)cc1C` [DDD01059934]: the IC50 in series [1] (setting [5]) is 8.88 µM; in series [2], above 25 µM; in series [3], above 25 µM.

For the compound `O=c1c2sccc2nc2n1CCN(Cc1ccccc1C(F)(F)F)CC2` [DDD01059968], the IC50 in series [1] (setting [5]) was 6.77 µM; in series [2] it was above 25 µM; in series [3] it was above 25 µM.

In the case of `COc1ccc(-c2ccc(C3CNCCO3)nc2)cc1` (stereo not shown) [DDD01061023], the IC50 in series [1] (setting [5]) was below 0.000141 µM; in series [2], 0.03 µM; in series [3] it was above 50 µM.

As to `CCc1nc(CN2CCCN(c3ncnc4ccccc34)CC2)no1` [DDD01080636], the IC50 in series [1] (setting [5]) was 0.691 µM; in series [2] it was above 50 µM; in series [3] it was 1.85 µM.

Consider `COc1ccc2cc(C3CN(C(=O)CCNC(C)=O)CCO3)ccc2c1` (stereo not shown) [DDD01248593], for which the IC50 was 0.333 µM in series [1] (setting [5]), 9.9 µM in series [2] and above 25 µM in series [3].

For `CNC(=O)CCC(=O)N1CCOC(c2ccc3cc(OC)ccc3c2)C1` (stereo not shown) [DDD01251007], the results for the IC50 in series [1] (setting [5]), in series [2] and in series [3] were 0.000954 µM, 23.5 µM and above 25 µM, respectively.

Take `COc1ccc2cc(C3CN(C(=O)N(C)C)CCO3)ccc2c1` (stereo not shown) [DDD01257372]: the IC50 in series [1] (setting [5]) was below 0.000141 µM; in series [2] it was 3.45 µM; in series [3], above 25 µM.

In general, Emax refers to the maximal effect, on the per cent scale that the assay sets. In general, inhibition refers to the relative decrease from the control value, in per cent. Take `COc1cccc(CN2CCC(CO)(Cc3ccc(Cl)cc3)CC2)c1O` [UCSD-0828601]: the IC50 came to 4.59 µM in series [1] (setting [6]) and 12.2 µM in series [4]. The same compound gave an Emax in series [1] (HepG2-A16-CD81, 48 h) of 95%. Besides, the inhibition at 2 µM in series [4] worked out at 2.59%. For the same compound, in series [3], the “HepG2 cytotoxicity 12pt dose response: Maximum inhibition (%)” value is 82.8%.

Regarding `C[C@H](c1ccc(F)cc1)n1c(C2CCN(C)CC2)n[nH]c1=O` [UCSD-0830237], the IC50 in series [1] (setting [6]) is 3.28 µM. In addition, the Emax in series [1] (HepG2-A16-CD81, 48 h) amounted to 86.3%. In series [4], the IC50 is above 50 µM and the inhibition at 2 µM is 3.06%. Further, the “HepG2 cytotoxicity 12pt dose response: Maximum inhibition (%)” value in series [3] was 8.15%.

For `O=C(O)CSc1nnc(-c2cn[nH]c2)n1-c1ccccc1C(F)(F)F` [UCSD-0830442], the IC50 in series [1] (setting [6]) turned out to be 5.54 µM. For the same compound, in series [4], the IC50 is above 50 µM and the inhibition at 2 µM came out at 6.23%. Moreover, in series [3], the “HepG2 cytotoxicity 12pt dose response: Maximum inhibition (%)” value is reported as 4.76%.

In the case of `COc1ccc(F)c(CN2CCCC(O)(CNCC(C)(C)C)C2=O)c1` (stereo not shown) [UCSD-0830878], in series [1] (setting [6]), the IC50 was determined as 44.7 µM. In series [1] (HepG2-A16-CD81, 48 h), the Emax turned out to be 86.4%. Also, in series [4], the half-inhibitory concentration (IC50) was above 50 µM and the inhibition at 2 µM turned out to be 5.34%. Further, the “HepG2 cytotoxicity 12pt dose response: Maximum inhibition (%)” value in series [3] is given as -11.6%.

On to `CN1CCCC(CCC(=O)N2CCc3sc(C(=O)N(C)C)cc3C2)C1` (stereo not shown) [UCSD-0833754], for which the IC50 in series [1] (setting [6]) is above 50 µM. The compound further registered an Emax in series [1] (HepG2-A16-CD81, 48 h) of 38.7%. Moreover, in series [4], the IC50 is above 50 µM and the inhibition at 2 µM is -1.19%. Besides, the “HepG2 cytotoxicity 12pt dose response: Maximum inhibition (%)” value in series [3] came out at 3.22%.

On to `NC(=O)CCn1cc(CNCc2csc(N)n2)c2ccccc21` [UCSD-0835992], for which the half-inhibitory concentration (IC50) in series [1] (setting [6]) is above 50 µM. In series [1] (HepG2-A16-CD81, 48 h), this compound had an Emax of 17.4%. Besides, in series [4], the half-maximal inhibitory concentration (IC50) was above 50 µM and the inhibition at 2 µM was determined as 9.68%. Moreover, the “HepG2 cytotoxicity 12pt dose response: Maximum inhibition (%)” value in series [3] is 10.2%.

As for `COc1ccccc1C1CCN(c2ccc3cc[nH]c3n2)CC1` [UCSD-0836069], in series [1] (setting [6]), the IC50 was determined as 3.52 µM. The same compound returned an Emax in series [1] (HepG2-A16-CD81, 48 h) of 93.5%. Moreover, in series [4], the IC50 amounted to 31.8 µM and the inhibition at 2 µM was 5.11%. In series [3], the “HepG2 cytotoxicity 12pt dose response: Maximum inhibition (%)” value is 60.6%.

Take `Cc1n[nH]c(CN2CCN(c3ncnc4scc(C)c34)CC2)c1Cl` [UCSD-0836325]: the IC50 is 4.49 µM in series [1] (setting [6]) and above 16.6 µM in series [4]. This compound yielded an Emax in series [1] (HepG2-A16-CD81, 48 h) of 96%. Moreover, in series [4], the inhibition at 2 µM was found to be 27.1%. Besides, the “HepG2 cytotoxicity 12pt dose response: Maximum inhibition (%)” value in series [3] turned out to be 66.1%.

In the case of `COc1ccc(OCCN2CCC(N3CCNC3=O)CC2)cc1` [UCSD-0840477], the IC50 in series [1] (setting [6]) amounted to 21.2 µM. This compound gave an Emax in series [1] (HepG2-A16-CD81, 48 h) of 62.9%. For the same compound, in series [4], the IC50 was above 50 µM and the inhibition at 2 µM amounted to 38.5%. In addition, in series [3], the “HepG2 cytotoxicity 12pt dose response: Maximum inhibition (%)” value is 42.1%.

Turning to `Cc1cccc(NC(=O)c2[nH]nc(C(C)C)c2Br)n1` [UCSD-0842406], the IC50 in series [1] (setting [6]) is 0.0268 µM. The same compound yielded an Emax in series [1] (HepG2-A16-CD81, 48 h) of 101%. Besides, in series [4], the IC50 was above 50 µM and the inhibition at 2 µM came to 17.4%. Also, the “HepG2 cytotoxicity 12pt dose response: Maximum inhibition (%)” value in series [3] was 40.5%.

Consider `Cc1ncsc1C(=O)NC1CCN(Cc2ccc(C(F)(F)F)cc2)CC1` [UCSD-0842554], for which, in series [1] (setting [6]), the IC50 was determined as 14.2 µM. This compound returned an Emax in series [1] (HepG2-A16-CD81, 48 h) of 87.4%. Besides, in series [4], the IC50 was above 50 µM and the inhibition at 2 µM is 9.14%. For the same compound, the “HepG2 cytotoxicity 12pt dose response: Maximum inhibition (%)” value in series [3] came to 41.9%.

In the case of `CC(=O)Nc1nc(C(=O)N2CCCC(n3cncn3)C2)cs1` (stereo not shown) [UCSD-0843277], the IC50 in series [1] (setting [6]) is 21.5 µM; in series [4], above 50 µM. In series [1] (HepG2-A16-CD81, 48 h), the Emax was determined as 81.2%. For the same compound, the inhibition at 2 µM in series [4] is -7.07%. Further, the “HepG2 cytotoxicity 12pt dose response: Maximum inhibition (%)” value in series [3] is given as -5.65%.

As for `CC(C)(C)c1nc(CN2CCCC(Cn3cncn3)C2)cs1` (stereo not shown) [UCSD-0846727], the IC50 in series [1] (setting [6]) and in series [4] was above 50 µM each time. Besides, the Emax in series [1] (HepG2-A16-CD81, 48 h) was found to be 24.9%. For the same compound, the inhibition at 2 µM in series [4] is 5.83%. Besides, the “HepG2 cytotoxicity 12pt dose response: Maximum inhibition (%)” value in series [3] was -16.6%.
